In patent publication US11925645B2, “Enhanced caffeinated beverage composition” (Ortho-Nutra, LLC, priority 2013, dated 2024):
Where two headings read alike, the source gives them in different places.

How the values were obtained:
[1] = cited from earlier work
[2] = Theacrine-caffeine interaction study: single oral dose plasma pharmacokinetics (LC-MS/MS, noncompartmental); assay type: in vivo, human; details: for Vd/F: read-out: Vd/F; for MRT: read-out: MRT; for half-life: read-out: t1/2 (converted)
Text: Theacrine pharmacokinetics in humans has not been systematically characterized. Therefore, one purpose of this study, among others, was to determine theacrine pharmacokinetics and dose-linearity following oral administration in humans.
Eight healthy nonsmokers, including 4 men and 4 women, were recruited for the experiment.
Study Design and Procedures. […] Theacrine, administered as iTeaCrine.®, was provided by Compound Solutions (Carlsbad, Calif). […] Treatment sequence was randomized using a 4×4 Latin square. There was an approximate 1-week washout period between treatments for all subjects.
Test Visit Procedures. […] A catheter was inserted into the forearm vein for blood sampling. Duplicate measurements of resting heart rate and blood pressure were taken pre-dose and prior to each timed blood sample. In addition, respiratory rate was counted in one minute and body temperature was measured using an ear scanning thermometer (dual readings taken at each time).
All subjects were instructed to consume their usual diet throughout the study period, with the exception of the actual days of testing. During the two days prior to each test day, subjects recorded all food and drink consumed and attempted to mimic this intake for the two-day period prior to subsequent visits. Diet records were analyzed using nutrient analysis software (Food Processor SQL, version 9.9; ESHA Research, Salem, Oreg.). For the actual test days, standardized meals (meal replacement food bars [Clif “Builder's 20 g Protein Bar”] and ready-to-drink shakes [Orgain Organic Nutrition™]) were provided to the subjects after sample collection at hour 2 and hour 6 (one shake and one-half bar at each time). Subjects were also provided with adequate meal replacement bars and shakes to consume following the 8 hour sample collection. (during their time outside the lab). Each bar contained 280 calories, 10 grams of fat, 29 grams of carbohydrate, and 20 grams of protein. Each shake contained 250 calories, 7 grams of fat, 32 grams of carbohydrate, and 16 grams of protein. No food other than what was provided to the subjects was allowed during each study day, including both time spent in the lab and outside the lab. […] The subjects returned the following morning for the 24 hour blood collection, again in a 10 hour fasted state. The same volume of meal replacement bars or shakes was consumed by each subject during each visit (both in lab and outside lab).
Pharmacokinetic Study. Plasma concentration-time data were evaluated using noncompartmental methods in Phoenix WinNonlin (version 7.0; Pharsight Corporation, Mountain View, Calif) with adjustment for lag time after oral administration. The maximum concentration (Cmax), lag time (talag), and time of maximum concentration (tmax) were determined from the plasma concentration versus time data. The area under the plasma concentration-time curve from time 0 to infinity (was calculated using the trapezoidal rule extrapolated to time infinity). […] The oral clearance (CL/F) was calculated by dividing the oral dose by AUC0-∞. The apparent volume of distribution during the terminal elimination phase (Vz/F) was calculated by dividing CL/F by k. […]

[3] = Single dose theacrine, caffeine or combination: subjective feelings on 10 cm visual analog scale; assay type: in vivo, human
Protocol: Subjects rated their subjective feelings using a 10 cm visual analog scale at 30 minutes, 1, 2, 3, 4, and 5 hours post ingestion and performed the trail making test (TMT) of cognitive performance at baseline and at hours 2 and 4 post ingestion.

[4] = Acute TeaCrine crossover trial: hemodynamics and side effect profiles; assay type: in vivo, human
Protocol: Anchored VAS questionnaires were used to detect changes in various aspects of physical and mental energy and performance; side effect profiles, hemodynamics and biochemical markers of safety were also collected over a 3-hr post-dosing period. A subset of 6 subjects underwent a separate 7-day, open-label, repeated dose study comparing 100 mg, 200 mg and 400 mg of TC.
Physical activity levels and health history were determined using standardized questionnaires. Heart rate and blood pressure were measured using an Omron HEM-780. Standing height was determined using a wall-mounted stadiometer. […] Medical Scale. A 100 mm anchored VAS questionnaire for energy, fatigue, and concentration was distributed at each acute lab session; additional VAS questionnaires were distributed for the daily assessment over a 6-hour period during the 7-day subset study. Quest Diagnostics (Pittsburgh, Pa.) was utilized to transport and analyze all blood samples. For each laboratory session, subjects reported to the lab well hydrated, 10-12 hours postprandial, and at least 24-hours after their last exercise session.
Statistical Analyses for Example 1. Descriptive statistics (mean, median, SD, 95% CIs) were used to quantify subjects physical characteristics. […] Effect sizes were also calculated. […]

[5] = Fourteen day study of repetitive dosing of theacrine and caffeine: psychometric indices; assay type: in vivo, human
A1 and A2A AR = details: rats; cited from earlier work
[6] = test system: biomarkers of inflammation; experiment: Biomarkers of inflammation in humans; assay type: in vivo, human; details: acute inflammatory stressors or chronic consumption
Text: Theacrine itself can reduce biomarkers of inflammation in humans in response to acute inflammatory stressors (e.g., intense exercise) or chronic consumption. Theacrine is shown to decrease C-reactive protein (CRP), Erythrocyte sedimentation rate (ESR), interleukin-6 (IL-6) and TNF-alpha.

[7] = both sexes, human, plasma, po, 125 mg
[8] = theacrine 125 mg + caffeine 150 mg versus theacrine 125 mg
[9] = theacrine with caffeine co-administration versus theacrine alone

Vd/F ([2]; both sexes, human, plasma, oral, theacrine, Condition 4: Theacrine 125 mg + Caffeine 150 mg, mean ± SD): 35.4 L | dose-adjusted Cmax ([2]; both sexes, human, plasma, po, 25 mg, Cmax, theacrine in plasma, Condition 1: Theacrine 25 mg single oral dose, dose-adjusted, mean ± SD): 34.1 ± 38.9 ng/mL/mg | Vd/F ([2]; both sexes, human, plasma, po, 25 mg, theacrine, Condition 1: Theacrine 25 mg single oral dose, mean ± SD): 48.1 ± 23.4 L | Tmax [2, 7]: 1.8 h | dose-adjusted Cmax ([2]; both sexes, human, plasma, po, 125 mg, Cmax, theacrine in plasma, Condition 2: Theacrine 125 mg single oral dose, dose-adjusted, mean ± SD): 25.6 ± 5.5 ng/mL/mg | Vd/F ([2]; both sexes, human, plasma, po, 125 mg, theacrine, Condition 2: Theacrine 125 mg single oral dose, mean ± SD): 50.5 ± 0.49 L | MRT [2, 7]: 36.8 ± 18.9 h | half-life [2, 7]: 26.1 ± 13.7 h | dose-adjusted Cmax ([2]; both sexes, human, plasma, po, Cmax, theacrine in plasma, Condition 4: Theacrine 125 mg + Caffeine 150 mg single oral dose, dose-adjusted, mean ± SD): 38.6 ± 16.6 ng/mL/mg | MRT ([2]; both sexes, human, plasma, theacrine, Condition 1: Theacrine 25 mg single oral dose, mean ± SD): 24.9 ± 3.5 h | half-life ([2]; both sexes, human, theacrine in plasma, Condition 1: Theacrine 25 mg single oral dose, mean ± SD): 16.5 ± 2.4 h | Tmax ([2]; both sexes, human, theacrine in plasma, Condition 1: Theacrine 25 mg single oral dose, median (range)): 1.8 h | time to reach maximal concentration ([2]; oral administration of theacrine alone): ≤ 2 h | decrease of theacrine oral clearance (CL/F) by caffeine [2, 8]: approximately 30% | decrease of theacrine oral volume of distribution (Vd/F) by caffeine [2, 8]: approximately 30% | theacrine absorption rate (Tmax) and half-life (t1/2) under caffeine co-administration ([2]; theacrine 125 mg + caffeine 150 mg versus theacrine alone): unaffected | absorption following oral administration ([2]; theacrine alone): well absorbed | dose-adjusted theacrine pharmacokinetic parameters, 25 mg versus 125 mg ([2]; theacrine alone): not significantly different | AUC ([2]; theacrine in plasma, Condition 1: Theacrine 25 mg single oral dose, dose-adjusted, mean ± SD): 809 ± 923 ng·h/mL/mg | AUC ([2]; theacrine in plasma, Condition 2: Theacrine 125 mg single oral dose, dose-adjusted, mean ± SD): 736 ± 312 ng·h/mL/mg | dose-adjusted Cmax ([2]; theacrine in plasma, Condition 4: Theacrine 125 mg + Caffeine 150 mg single oral dose, dose-adjusted, mean ± SD): 37.7 ± 16.5 ng/mL/mg | AUC ([2]; theacrine in plasma, Condition 4: Theacrine 125 mg + Caffeine 150 mg, dose-adjusted, mean ± SD): 1,242 ± 1,129 hr * ng/mL/mg | geometric mean ratio of AUC [2, 9]: 1.1 ±0.03 | geometric mean ratio of Cmax [2, 9]: 1.1 ±0.06 | CL/F ([2]; theacrine, Condition 1: Theacrine 25 mg single oral dose, mean ± SD): 2.0 ± 0.9 L/h | CL/F ([2]; theacrine, Condition 2: Theacrine 125 mg single oral dose, mean ± SD): 1.6 ± 0.5 L/h | CL/F ([2]; theacrine, Condition 2: Theacrine 125 mg single oral dose, mean ± SD, listed as theacrine): 1.6 ± 0.49 L/h | CL/F ([2]; theacrine, Condition 4: Theacrine 125 mg + Caffeine 150 mg, mean ± SD): 1.2 ± 0.6 L/h | CL/F ([2]; theacrine, Condition 4: Theacrine 125 mg + Caffeine 150 mg, mean ± SD, listed as theacrine): 1.2 L/h | AUC ([2]; theacrine, theacrine 125 mg alone): 740 ± 310 ng·h/mL/mg | AUC ([2]; theacrine, with caffeine co-administration (theacrine 125 mg + caffeine 150 mg)): 1200 ± 1100 ng·h/mL/mg
SMILES: Cn1c(=O)c2c(n(C)c1=O)n(C)c(=O)n2C [Theacrine, 1,3,7,9-tetramethylpurine-2,6,8-trione]
sensitization or pharmacodynamic tolerance ([1]; repeat dose theacrine studies): absence of either sensitization or pharmacodynamic tolerance | safety, adverse effects on hemodynamic parameters ([1]; theacrine supplementation up to 400 mg/day for 8 weeks): appears to be safe | time post-ingestion at which increase in subjective focus reached statistical significance ([3]; 125 mg theacrine treatment): 3 h | safety and improvement of subjective feelings related to energy ([3]; alone at 125 mg or in combination with caffeine): safe and effective | changes in systemic hemodynamics or side effect profiles ([4]; 200 mg dose of TC, 3-hr post-dosing period): No changes | systemic hemodynamics: systolic and diastolic blood pressure (FIGS. 4 and 5) ([4]; various time intervals after administration): no substantial change | anxiety [5]: decreased anxiety | psychometric indices of energy, focus, concentration, motivation and mood [5]: still maintained elevated | theacrine stimulating activity under a cocktail containing both A1 and A2A AR antagonists (A1 and A2A AR): blocks | C-reactive protein (CRP) [6]: decrease | Erythrocyte sedimentation rate (ESR) [6]: decrease | TNF-alpha [6]: decrease | interleukin-6 (IL-6) [6]: decrease
